# Source: patent US20110152218A1, “CRYSTALLINE PHOSPHOLIPID, METHOD FOR ITS PRODUCTION AND USE IN TREATING DAMAGED TISSUE” (priority 2008, published 2011)
# Columns and labels:
# [1] = system: HPMC; experiment: HPMC ATP bioluminescence assay; format: cell-based, human; details: 72 hours; single well; over the tested concentrations
# Protocol: The viability of HPMC after stimulation with FCS, phospholipid prepared according to Example 1 (Vibrated and Non-vibrated), lysophosphatidic acid (LPA), DPPC, DPPC/LPA, POPC, Curosurf, egg-PG (EPG) and the three Intralipid™ products was determined using an ATP assay. This assay measures the light emitted during the ATP dependant oxidation of luciferin in order to accurately quantify the ATP concentration.
# As described in Example 3, primary HPMC are isolated from omental tissue biopsies donated by consenting patients undergoing elective abdominal surgery. Cells are grown to approximately 60% confluence in 96 well plates (Falcon) and used at passage 2. All cells are growth arrested in serum free M199 for 24 hours prior to use.
# An ATP Bioluminescence Assay Kit CLS II (Roche Diagnostics, Cat No 1 699 695, 11857300) was used. It contains ATP Standard, Luciferase and distilled water. A 10 mM EDTA solution was prepared by dissolving 1.8612 g EDTA (Fischer Scientific, Code D/0650/60, Batch 0447430, Mr-372.24) in 500 ml H2O (or 3.7224 g in 1 litre). A BAC-extract solution was prepared by dissolving 1 g Benzalkonium Chloride (Sigma-Aldrich, Cat:-23, 442-7, Lot S22104-334) in 1 litre of 10 mM EDTA. […]
# To mix, rotate the bottle carefully. • 2) Make up an ATP standard solution having a base concentration of 1.65 μM ATP. […] Use distilled water as the control. • 4) Set the Fluostar Optima plate reader to measure luminescence. Set the Fluostar Optima plate reader pump to inject 20 μl of luciferase into each of the required wells. • 5) Place the plate into the plate reader and measure the relative light units (RLU). • 6) Prepare a standard curve such as that shown in FIG. 16 by plotting a graph of RLU against ATP concentration.
# 96 well plates from the HPMC proliferation study were defrosted. […] The ATP concentrations were calculated from the RLU of the samples using the standard curve. As an alternative to using an ATP standard curve, data can be normalised to the un-stimulated control and expressed as “ATP (% of control)”.
# [2] = system: HPMC; experiment: Alamar Blue assay of HPMC proliferation in various tested media; format: cell-based, human; details: 50/50 v/v Hartmanns solution and supplemented M199; 48 hours; single well
# Protocol: The suitability of various media for use in forming a dispersion of phospholipid prepared as described in Example 1 or of DPPC was investigated. The Alamar Blue™ assay of HPMC proliferation described in Example 3 was repeated using a single well of cells for each stimulation with a positive control of FCS dispersed in the tested medium, a negative control of the tested medium, and a phospholipid dispersed in the tested medium. The results obtained after 48 hours are shown in FIGS. 13A-13J and discussed below.
# [3] = system: human peritoneal mesothelial cell (HPMC); experiment: HPMC proliferation, Alamar Blue and MTT assay; format: cell-based; details: 48 hours and 72 hours; over the tested concentrations in supplemented M199
# Protocol: The effect of a phospholipid prepared as described in Example 1 (and/or its constituent compounds) to induce human peritoneal mesothelial cell proliferation was assessed using an Alamar Blue™ assay and an MTT assay.
# The Alamar Blue™ assay is designed to measure the proliferation of various cell types by measuring the ability of the cells to metabolise and reduce a REDOX indicator (Alamar Blue™). Reduction of the REDOX indicator results in a change in its fluorescent activity. Therefore the fluorescent activity measured is proportional to cell proliferation.
# The MTT Assay measures the proliferations of various cells and is based on the mitochondrial conversion of tetrazolium salt 3-[4,5-dimethyl-thiazol-2-yl]-2,5-diphenyltetrazium bromide (MTT), into an insoluble formazan salt. The resultant colour change is directly related to the number of viable cells.
# As described in Morgan L W et al (“Glucose degradation products (GDP) retard re-mesothelialisation independently of D-glucose concentration.” Kidney Int 64:1854-1866, 2003), primary HPMC are isolated from omental tissue biopsies donated by consenting patients undergoing elective abdominal surgery. Cells were grown to approximately 60% confluence in 96 well plates (Falcon) and used at passage 2. All cells were growth arrested in serum free M199 for 24 hours prior to use.
# The supplemented M199 medium was prepared as follows. Earle's salt medium M199 was supplemented with 100μ/ml penicillin, 100 μg/ml streptomycin, 2 mM glutamine, 5 μg/ml insulin, 5 μg/ml transferrin and 0.4 μg/ml hydrocortisone and 2 mmol/L N-2-hydroxyethylpiperazine-N′-2ethanesulfonic acid.
# The phospholipid prepared as described in Example 1 was prepared as follows. […]
# The growth medium was aspirated from each well and then the well was washed once using 200 μl per well of supplemented M199. […] The fluorescent activity of Alamar Blue™ at 540 nm (wavelength) was measured using a Dynex Revalation 96-multiwell plate reader. […]
compound,measurement,setting,value
"CCCCCCCCCCCCCCCC(=O)OC[C@H](COP(=O)([O-])OCC[N+](C)(C)C)OC(=O)CCCCCCCCCCCCCCC [DPPC, Dipalmitoyl phosphatidyl choline]",HPMC proliferation by ATP assay (ATP % of control) compared to the negative control,[1],no increase of HPMC proliferation
same,HPMC proliferation response in the first tested medium,[2],not as great as DPPC in supplemented M199 by itself
same,HPMC proliferation compared to the negative control,[3],no significant stimulation of HPMC proliferation
